Measured values: patent publication US7321027B2, “Small technetium-99m and rhenium labeled agents and methods for imaging tumors” (President and Fellows of Harvard College, priority 2000, dated 2008)

Tests used:
[1] = test system: B16/F0 murine melanoma; assay: In-vivo tumor uptake and biodistribution; design: species or system C57B16 mice; settings: mouse, in vivo
Procedure: In-Vivo Tumor Uptake. To study the tumor uptake of ^99mTc-complexes, Tc-(Compound A-D and J-K), in vivo, biodistribution experiments at 1 h and 6 h after their administration were carried out in C57B16 mice with palpable B16 melanoma nodules. The biodistribution data including melanoma/nontumor (M/NT) ratios for selected organs are summarized in Table 4 and 5 as percentage injected dose per gram ([…]).
Animal Studies. All animal experiments were performed in compliance with the Principles of Laboratory Animal Care (NIH publication #85-23, revised 1985). Biodistribution studies and tumor-uptake measurements were performed in C57B16 mice (15 to 20 g) bearing the B16/F0 murine melanoma on the hind limb. See for example the studies described in, which are hereby incorporated by reference, Brandau, W.; Niehoff, T.; Pulawski, P.; Jonas, M.; Dutschka, K.; Sciuk, J.; Coenen, H. H.; Schober, O. Structure Distribution Relationship of Iodine-123-Iodobenzamides as Tracers for the Detection of Melanotic Melanoma. J. Nucl. Med. 1996, 37, 1865-1871; Mohanmmed, A.; Nicholl, C.; Titsch, U.; Eisenhut, M. Radiojodinated N-(Alkylaminoalkyl)-Substituted 4-Methoxy-, 4-Hydroxy-, and 4-Aminobenzamides: Biological Investigations for the Improvement of Melanoma-Imaging Agents. Nucl. Med. Biol. 1997, 24, 373-380; Titsch, U.; Mohammed, A.; Wagner, S.; Oberdorfer, F.; Eisenhut, M. Syntheses of N-(2-Diethylaminoethyl)benzamides Suitable for ^99mTc Complexation. J. Labelled Compd. Radiopharm. 1997, 40, 416-418; Dittmann, H.; Coenen, H. H.; Zölzer, F.; Dutschka, K.; Brandau, W.; Streffer, C. In Vitro Studies on the Cellular Uptake of Melanoma Imaging Aminoalkyl-iodobenzamide Derivatives (ABA). Nucl. Med. Biol. 1999, 26, 51-56; and Michelot, J. M.; Moreau, M. F. C.; Veyre, A. J.; Bonafous, J. F.; Bacin, F. J.; Madelmont, J. C.; Bussiere, F.; Souteyrand, P. A.; Mauclaire, L. P.; Chossat, F. M.; Papon, J. M.; Labarre, P. G.; Kauffmann, Ph.; Plagne, R. J. Phase II Scintigraphic Clinical Trial of Malignant Melanoma and Metastases with Iodine-123-N-(2-Diethylaminoethyl 4-Iodobenzamide). J. Nucl. Med. 1993, 34, 1260-1266. The tumor cells (B16/F0), obtained from ATCC, were washed with PBS and transplanted subcutaneously on the left hind flank by an inoculation of 0.5×10^6 cells (0.1 mL). Ten to 14 days later the animals developed palpable tumor nodules 3 to 5 mm in diameter. The biodistribution studies were carried out by tail-vein injection of 25 to 30 μCi (0.05 to 0.1 mL) of the ^99mTc-labeled complexes Tc-(Compound A-D, H, J, K or M). At the designated time after tail-vein administration, the animals were weighed and sacrificed. The organs and tumors were harvested and, when appropriate, blotted dry, weighed, and counted in a gamma counter along with technetium-99m standards of the injected dose. The results are expressed as % ID/g tissue (Table 4 and 5)

[2] = test system: B16/F0 cells; assay: Tumor-cell uptake in the presence of DTG; type: cell-based, murine; settings: DTG 90 μM, 30 min prior, 37° C.
From the text: J. Labelled Compd. Radiopharm. 1994, 35, 242-244; Vilner, B. J.; John, C. S.; Bowen, W. D. Sigma-I and Sigma-2 Receptors Are Expressed in a Wide Variety of Human and Rodent Tumor Cell Lines. Cancer Res. 1995, 55, 408-413; and John, C. S.; Vilner, B. J.; Gulden, M. E.; Efange, S. M. N.; Langason, R. B.; Moody, T. W.; Bowen, W. D. Synthesis and Pharmacological Characterization of 4-[^125I]-N-(N-Benzylpiperidin-4-yl)-4-iodobenzamide: A High Affinity σ Receptor Ligand for Potential Imaging of Breast Cancer. […] Pre-incubation of the tumor cells with DTG (90 μM), 30 min prior to the uptake experiments with the ^99mTc-complexes, yields a lower tumor-cell uptake for complexes Tc-(Compound A) (29% less), Tc-(Compound C) (33% less), and Tc-(Compound D) (32% less) at 37° C. (FIG. 4). Additional dose-response experiments conducted with intact B16/F0 cells at 37° C. with Tc-(Compound C) and DTG as the inhibitor (FIG. 3) show a DTG concentration-dependent decrease in the uptake of the complex.
The effect of the inhibitor DTG on cell uptake of these complexes was studied by addition of the inhibitor at various concentrations to the cell suspension 30 min prior to addition of the ^99mTc-complexes. Fresh DTG stock solutions were made by dissolving DTG (3.0 mg, 12.5 μmol) in 0.38 mL PBS and 0.12 mL hydrochloric acid (0.1 N) and subjecting the mixture to ultrasound until a clear solution was obtained, followed by the addition of 0.50 mL FBS to produce a neutral solution at pH 7.4. The stock solutions were diluted by an appropriate amount of S-MEM, and aliquots between 5 μL and 25 μL were added to the cell suspension such that the final concentration of DTG was between 0.02 μM and 120 μM in a total cell suspension volume of 350 μL.

mel/lung ratio [1] | Structure (SMILES) | lower tumor-cell uptake after pre-incubation with DTG [2] [%]
2.1 | CCCCN(CCCC)CCN1CC[S][99Tc]2(=[O])[S]CC[N]2C(=O)C1 (centres unmarked) [Tc-(Compound B)] | –
– | CCN(CC)CCN1CC[S][99Tc]2(=[O])[S]CC[N]2C(=O)C1 (centres unmarked) [Tc-(Compound A)] | 29
